Tests used:
Type in all cases: cell-based
K. pneumoniae 1161486 [1] = assay: MIC, CLSI broth microdilution assay; settings: agent alone
Method: (§1) For the described examples, reference and clinical isolates were generally obtained from known sources, including American Type Culture Collection (Manasas, VA.) or International Health Management Associates, Inc. (Schaumberg, IL). Bacteria were cultured in suitable broth, concentrated by centrifugation, and cryopreserved in the same medium, generally containing 20% glycerol by holding at −80° C. Every two weeks a small amount of frozen culture was removed aseptically and streaked on fresh agar plates to act as a working inoculum. Following overnight growth at about 37° C., the plates were wrapped in parafilm and held at about 4° C. Bacteria (4-5 colonies) were then aseptically transferred into broth growth medium for assays as needed.
(§2) Minimal inhibitory concentration (MIC) assays were performed in a manner as described for the CLSI broth microdilution assay guideline (see, Clinical Laboratory Standards Institute, 2009, Methods for Dilution Antimicrobial Susceptibility Tests for Bacteria That Grow Aerobically; Approved Standard, Eighth Edition, M07-A8, Vol. 29, No. 2). Antibiotics were dissolved, and then serially diluted in suitable broth across the assay plate in the classical 2-fold geometric format. Antibiotic concentrations in each well at this point were double what the final assay concentration would be. Bacterial inocula were prepared by swabbing several colonies from a fresh agar plate, and resuspending the bacteria to a density that was the 0.5 McFarland turbidity standard (generally close or equivalent to 1×10^8 CFU/mL). The bacterial inocula were diluted in the broth to about 1×10^6 CFU/mL, and a suitable amount, e.g., 100 μL was overlayered onto the wells containing the diluted antibiotics. Following incubation as per the guideline, results were recorded as growth or no growth, and the lowest concentration of antibiotic where no growth was observed was declared the MIC.

K. pneumoniae 170S [2] = assay: MIC, CLSI broth microdilution assay; settings: agent alone
Method: as §1, §2

E. coli ATCC 25922 = assay: MIC, CLSI broth microdilution assay; settings: agent alone
Method: as §1, §2

E. coli 7623 [3] = assay: MIC, CLSI broth microdilution assay; settings: agent alone
Method: as §1, §2

A. baumannii 160S = assay: MIC, CLSI broth microdilution assay; settings: agent alone
Method: as §1, §2

K. pneumoniae 1161486 [4] = assay: Synergy checkerboard assay of antibacterial combinations; settings: in combination with A-24
Method: as §1
as §2, with “Bacterial inocula were prepared by swabbing several colonies from a fresh agar plate, and resuspending the bacteria to a density that was the 0.5 McFarland turbidity standard (generally close or equivalent to 1×10^8 CFU/mL). The bacterial inocula were diluted in the broth to about 1×10^6 CFU/mL, and a suitable amount, e.g., 100 μL was overlayered onto the wells containing the diluted antibiotics.” left out
(§3) To assay for synergy of antibacterial combinations, a recognized synergy checkerboard assay, adapted from the CLSI guideline microdilution assay, was utilized (see Eliopoulos, G. M., and Moellering, R. C, Jr., 1996. Antimicrobial Combinations, pg. 330-396. In: Lorian, V. (Ed.), Antibiotics in Laboratory Medicine, 4th Ed., Williams & Wilkins; Baltimore, MD). […] The fractional inhibitory concentration, which provides the mathematical definition (as shown below) is calculated to determine whether antibacterial synergy was observed. […]

K. pneumoniae 170S [5] = assay: as above; settings: in combination with A-24
Method: as §1
as §2, with “Bacterial inocula were prepared by swabbing several colonies from a fresh agar plate, and resuspending the bacteria to a density that was the 0.5 McFarland turbidity standard (generally close or equivalent to 1×10^8 CFU/mL). The bacterial inocula were diluted in the broth to about 1×10^6 CFU/mL, and a suitable amount, e.g., 100 μL was overlayered onto the wells containing the diluted antibiotics.” left out
as §3

E. coli 7623 [6] = assay: as above; settings: in combination with A-24
Method: as §1
as §2, with “Bacterial inocula were prepared by swabbing several colonies from a fresh agar plate, and resuspending the bacteria to a density that was the 0.5 McFarland turbidity standard (generally close or equivalent to 1×10^8 CFU/mL). The bacterial inocula were diluted in the broth to about 1×10^6 CFU/mL, and a suitable amount, e.g., 100 μL was overlayered onto the wells containing the diluted antibiotics.” left out
as §3

pristinamycin
MIC (K. pneumoniae 1161486 [1]): >128 µg/mL | MIC (K. pneumoniae 170S [2]): >128 µg/mL | MIC (E. coli ATCC 25922): 64 µg/mL | MIC (E. coli 7623 [3]): 64 µg/mL | MIC (A. baumannii 160S): 128 µg/mL | MIC of Pristinamycin in Combo (K. pneumoniae 1161486 [4]): ≤2 µg/mL | MIC of Pristinamycin in Combo (K. pneumoniae 170S [5]): 2 µg/mL | MIC of Pristinamycin in Combo (E. coli 7623 [6]): 32 µg/mL

From patent publication US11951148B1 (Fleurir ABX LLC, priority 2014, dated 2024)
